Assays:
[1] = test system: Splenocytes treated with LPS; test: Suppression of LPS-induced inflammation (splenocytes in vitro); assay type: cell-based, mouse; conditions: splenocytes treated concurrently with compound and LPS (FIG. 1)
Protocol: FIG. 1. […] Splenocytes were treated concurrently with the compounds of the invention and LPS to assess the suppressive function of compounds on LPS-induced inflammation, with several compounds showing prominent suppressive function.
(§1) The whole spleen was surgically removed from a mouse and mechanically dissociated into a single cell suspension of splenocytes, which were then cultured in the complete RPMI 1640 medium (cRPMI). Human peripheral blood mononuclear cells (PBMCs) from healthy volunteers were collected from whole blood through gradient-centrifugation with Histopaque-1077 (Sigma-Aldrich).
Splenocytes were treated concurrently with the compounds of the invention and LPS to assess the suppressive function of compounds on LPS-induced inflammation.

[2] = test system: Splenocytes; test: Immune-stimulating function of compounds alone (splenocytes in vitro); assay type: cell-based, mouse; conditions: for Th1/Th2 bias: concluded from IFNγ and IL-4 secretion of splenocytes (FIG. 6); for IFNγ secretion / IL-4 secretion: splenocytes treated with compound alone (FIG. 6)
Protocol: FIG. 6. […] Splenocytes were treated with the compounds of the invention alone to assess the immune-stimulating function of the compounds. Compounds 12, 18, 22, 27, and 29 induced significant IFNγ secretion, and compound 8 induced significant IL-4 secretion.
as §1
Splenocytes were treated with the compounds of the invention alone to assess the immune-stimulating function of the compounds by measuring their ability to promote the secretions of IFN-γ and IL-4.

[3] = test system: OVA-induced AHR mouse model; test: Suppression of OVA-induced airway hyperreactivity (AHR) in vivo; conditions: OVA-induced AHR mouse model (FIG. 7)
Protocol: FIG. 7. […] The capability of selected compounds 8, 12, 18, and 27 in suppressing Th2 inflammation in vivo was assessed using the OAV-induced AHR mouse model.
(§2) For ovalbumin (OVA) challenge, mice were sensitized intraperitoneally (i.p.) with 50 μg of OVA with 2% alhydrogel adjuvant (InvivoGen). Mice were challenged three times with 50 μg of OVA on day 7 post-sensitization, either daily or every other day. Mice were sacrificed the day after the last OVA challenge. The scheme of the OT-1 adoptive transfer mouse model for examining the proliferation of CD8^+ T cells in adjuvanting OVA challenge is described in FIG. 13.
Mice were anesthetized with 100 mg per kg body weight pentobarbital (Sigma-Aldrich), tracheotomised and mechanically ventilated via the FinePointe RC system (Buxco Research Systems, Wilmington, NC). Lung function was assessed by measuring lung resistance and dynamic compliance in response to increasing doses of aerosolized methacholine (1.25-40 mg/mL, Sigma-Aldrich).
(§3) Using the Th2 OVA-induced AHR mouse model, we assessed the capability of selected compounds 8, 12, 18, and 27 in suppressing Th2 inflammation.

[4] = test system: OVA-induced AHR mouse model; test: Suppression of OVA-induced airway inflammation in vivo (IL-13 and IL-4 in BALF and lungs); conditions: OVA-induced AHR experiment; for IL-4 level in BALF / IL-13 level in BALF: bronchoalveolar lavage fluid (FIG. 8); for IL-4 protein level in lungs / IL-13 protein level in lungs: lung protein (FIG. 9)
Protocol: FIG. 8. […] The bronchoalveolar lavage fluid (BALF) from mice in the OAV-induced AHR experiment was examined forth IL-13 and IL-4 levels.
FIG. 9. […] The lungs from mice in the OAV-induced AHR experiment was examined for their IL-13 and IL-4 protein level.
FIG. 10. […] The lungs from mice in the OAV-induced AHR experiment was examined for their IL-13 and IL-4 mRNA levels.
as §2
Upon exposure of the trachea, the lungs were lavaged twice with 1 mL of PBS supplemented with 2% fetal calf serum (FCS). BALF was pooled and bronchoalveolar (BAL) cells were pelleted by centrifugation and fixed onto cytospin slides. The slides were stained with Diff-Quik solution (Polysciences Inc) and BAL differential cell count was performed.
as §3

[5] = test system: B6 mice; test: Adjuvancy function in vivo (serum IFNγ and IL-4 after injection)
Protocol: FIG. 11. […] The adjuvancy capability of the selected compounds 8, 12, 18, 27, and 29 in vivo was assessed by measuring the serum level of IFNγ and IL-4 induced after injecting them into B6 mice.
Besides assessing the ability of the new compounds to suppress inflammation, we also looked into their function to act as adjuvants, i.e. their ability to promote desirable immunological trends in the development of vaccines. We measured the in vivo adjuvancy capability of selected compounds 8, 12, 18, 27, and 29 in inducing IFNγ and IL-4 in B6 mice (FIG. 11).

[6] = test system: Splenocytes treated with αGalCer; test: Suppression of αGalCer-induced inflammation (splenocytes in vitro); assay type: cell-based, mouse; conditions: splenocytes treated concurrently with compound and αGalCer (FIG. 5)
Protocol: FIG. 5. […] Splenocytes were treated concurrently with the compounds of the invention and αGalCer to assess the suppressive function of compounds on αGalCer-induced inflammation, with several compounds showing prominent suppressive function.
as §1
Splenocytes were treated concurrently with the compounds of the invention and αGalCer to assess their ability to suppress αGalCer-induced inflammation.

[7] = test system: bone marrow-derived macrophages (BMDM) treated with LPS; test: Suppression of LPS-induced inflammation in bone marrow-derived macrophages (BMDM in vitro); assay type: cell-based; conditions: LPS-induced, BMDM (FIG. 2)
From the text: Since macrophage is the major responder to LPS-induced inflammation, we assessed the capability of selected compounds to suppress LPS-induced inflammation in bone marrow-derived macrophages (BMDM).

[8] = test system: glycosidases of human fibroblast lysates; test: Stability of the glycosidic linkage to glycosidases upon incubation with human fibroblast lysates; assay type: in vitro ADME; conditions: 4 h, 37° C., compound solution 200 μM, 0.1 M citrate buffer pH 4.5
Protocol: The stability of the glyosidic linkage in compounds 2, 4, 6, 8, 10, 12, 14, 16, 18, 20, 22, 23, 25, 27 and 29, selected as representative examples, upon incubation with human fibroblast lysates for 4 h was checked. For such purpose, cells were scraped into ice-cold H2O (10^6 cells mL^−1) and lysed by sonication. Insoluble materials were removed by centrifugation at 15,000 rpm for 5 min and protein concentrations were determined with Protein Assay Rapid Kit (WAKO, Tokyo, Japan). 10 μL of the lysates in 0.1% Triton X-100 in distilled water were incubated at 37° C. with 20 μL of the compound solution (200 μM) in 0.1 M citrate buffer, pH 4.5. In control experiments, the activity of several lysosomas glycosidases was confirmed using fluorescent substrates. The substrates were 4-methylumbelliferone (4-MU)-conjugated β-D-glucopyranoside (for GCase), α-D-glucopyranoside (for α-glucosidase), α-D-galactopyranoside (for α-Galase) and β-D-galactopyranoside (for β-galactosidase). The liberated 4-methylumbelliferone was measured in the black-well plate with a Perkin Elmer Luminescence Spectrometer (excitation wavelength: 340 nm; emission: 460 nm).

[9] = 2 hours after injection (FIG. 11)
[10] = 18 hours after injection (FIG. 11)

| SMILES | suppressive function on LPS-induced inflammation [1] | Th1/Th2 bias [2] | IFNγ secretion [2] | IL-4 secretion [2] | IL-4 protein level in lungs [4] | IL-13 protein level in lungs [4] | serum level of IFNγ induced [5, 9] | serum level of IL-4 induced [5, 9] | serum level of IFNγ induced [5, 10] | serum level of IL-4 induced [5, 10] | other results |
| --- | --- | --- | --- | --- | --- | --- | --- | --- | --- | --- | --- |
| CCCCCCCCCCCCNC(=O)[C@H](CS[C@@H]1C(O)[C@@H](O)[C@H](O)C2COC(=O)N21)NC(=O)CCCCCCCCCCC (some centres unmarked) [Compound 18] | prominent inflammation-suppressing function | Th1-biased | effective in promoting the productions of IFNγ | not IL-4 | only showed significant suppression on IL-13 | significant suppression | significant serum IFNγ level | only showed significant serum IFNγ level | significant serum IFNγ level | only showed significant serum IFNγ level | suppression of airway hyperreactivity (AHR) [3]: can suppress AHR onset; IL-4 level in BALF [4]: significant suppression; IL-13 level in BALF [4]: only showed significant suppression on IL-4 |
| CCCCCCCCCCCCNC(=O)[C@H](CO[C@@H]1C(O)[C@@H](O)[C@H](O)C2COC(=O)N21)NC(=S)NCCCCCCCC (some centres unmarked) [Compound 14] | prominent inflammation-suppressing function | – | – | – | – | – | – | – | – | – | – |
| CCCCCCCCCCCCNC(=O)[C@H](CS[C@@H]1C(O)[C@@H](OCc2ccccc2)[C@H](O)C2COC(=O)N21)NC(=O)CCCCCCCCCCC (some centres unmarked) [Compound 20] | prominent inflammation-suppressing function | – | – | – | – | – | – | – | – | – | – |
| CCCCCCCCCCCCCC(=O)N[C@@H](CS[C@@H]1C(O)[C@@H](O)[C@H](O)C2COC(=O)N21)C(=O)NCCCCCCCCCCCC (some centres unmarked) [Compound 22] | – | Th1-biased | effective in promoting the productions of IFNγ | not IL-4 | – | – | – | – | – | – | – |
| CCCCCCCCCCCCNC(=O)[C@H](CS[C@@H]1C(O)[C@@H](O)[C@@H](O)C2COC(=O)N21)NC(=O)CCCCCCCCCCC (some centres unmarked) [Compound 29] | – | Th1-biased | effective in promoting the productions of IFNγ | not IL-4 | – | – | significant capability in inducing | significant capability in inducing | significant detectable level | significant detectable level | – |
| CCCCCCCCCCCCCCCCCCCCCCCCCC(=O)N[C@@H](CO[C@@H]1C(O)[C@@H](O)[C@@H](O)C2COC(=O)N21)[C@H](O)[C@H](O)CCCCCCCCCCCCCC (some centres unmarked) [Compound 6] | – | – | – | – | – | – | – | – | – | – | suppressive function on αGalCer-induced inflammation [6]: prominent inflammation-suppressing function |
| CCCCCCCCCCCCCCCCCCCCCCCCCC(=O)N[C@@H](CO[C@@H]1C(O)[C@@H](O)[C@H](O)C2COC(=O)N21)[C@H](O)[C@H](O)CCCCCCCCCCCCCC (some centres unmarked) [Compound 2] | – | – | – | – | – | – | – | – | – | – | suppressive function on αGalCer-induced inflammation [6]: prominent inflammation-suppressing function |
| CCCCCCCCCCCCCC[C@@H](O)[C@@H](O)[C@H](CO[C@@H]1C(O)[C@@H](O)[C@@H](O)C2COC(=O)N21)n1cc(CCCCCCCC)nn1 (some centres unmarked) [Compound 8] | prominent inflammation-suppressing function | Th2-biased | not IFNγ | proficient at inducing IL-4 secretion | only showed significant suppression on IL-13 | significant suppression | significant capability in inducing | significant capability in inducing | significant detectable level | significant detectable level | suppression of airway hyperreactivity (AHR) [3]: can suppress AHR onset |
| CCCCCCCCCCCCNC(=O)[C@H](CO[C@@H]1C(O)[C@@H](O)[C@@H](O)C2COC(=O)N21)NC(=O)CCCCCCCCCCC (some centres unmarked) [Compound 27] | – | Th1-biased | effective in promoting the productions of IFNγ | not IL-4 | only showed significant suppression on IL-13 | significant suppression | significant capability in inducing | significant capability in inducing | significant detectable level | significant detectable level | suppression of IL-6 [7]: significant suppression; suppression of TNFα [7]: significant suppression; IL-4 level in BALF [4]: only showed significant suppression on IL-13; IL-13 level in BALF [4]: significant suppression |
| CCCCCCCCCCCCCCC(O)C(O)C(COC1C(O)C(O)C(O)C2COC(=O)N21)n1cc(CCCCCCCCCCCC)nn1 (centres unmarked) [Compound 10] | prominent inflammation-suppressing function | – | – | – | – | – | – | – | – | – | hydrolysis of the glycolipid mimetic (free polysubstituted 2-oxa-3-oxoindolizidine detected by gas chromatography) [8]: No traces of the free polysubstituted 2-oxa-3-oxoindolizidine |
